Data from US7446199B2, “Compositions useful as inhibitors of protein kinases” (Vertex Pharmaceuticals Incorporated, priority 2003, dated 2008).

Experiments:
Format in all cases: biochemical
[1] = target: c-Met (Homo sapiens, UniProt P08581); assay: Ki determination for the inhibition of c-Met, coupled enzyme system; details: 200 μM ATP, 10 μM polyGluTyr, 80 nM c-Met, 30° C.
Procedure: Compounds were screened for their ability to inhibit c-Met kinase activity using a standard coupled enzyme system (Fox et al., Protein Sci. 1998, 7, 2249). Reactions were carried out in a solution containing 100 mM HEPES (pH 7.5), 10 mM MgCl2, 25 mM NaCl, 300 μM NADH, 1 mM DTT, and 1.5% DMSO. Final substrate concentrations in the assay were 200 μM ATP (Sigma Chemicals, St Louis, Mo.) and 10 μM polyGluTyr (Sigma Chemical Company, St. Louis). Reactions were carried out at 30° C. and 80 nM c-Met. Final concentrations of the components of the coupled enzyme system were 2.5 mM phosphoenolpyruvate, 300 μM NADH, 30 μg/ml pyruvate kinase and 10 μg/ml lactate dehydrogenase.
An assay stock buffer solution was prepared containing all of the reagents listed above with the exception of ATP and a test compound of the present invention. The assay stock buffer solution (175 μl) was incubated in a 96 well plate with 5 μl of the test compound of the present invention at final concentrations spanning 0.006 μM to 12.5 μM at 30° C. for 10 minutes. Typically, a 12-point titration was conducted by preparing serial dilutions (from 10 mM compound stocks) with DMSO of the test compounds of the present invention in daughter plates. The reaction was initiated by the addition of 20 μl of ATP (final concentration 200 μM). Rates of reaction were obtained using a Molecular Devices Spectramax plate reader (Sunnyvale, Calif.) over 10 minutes at 30° C. The Ki values were determined from the rate data as a function of inhibitor concentration.

[2] = target: GSK-3β, (AA 1-420) (Homo sapiens, UniProt P49841); assay: GSK-3 inhibition assay, coupled enzyme system; details: 20 μM ATP, 300 μM peptide, 20 nM GSK-3b, 30° C.; read-out: Ki values (GSK3)
Sequence of GSK-3β, (AA 1-420) (P49841 whole entry, the tested form may be a part): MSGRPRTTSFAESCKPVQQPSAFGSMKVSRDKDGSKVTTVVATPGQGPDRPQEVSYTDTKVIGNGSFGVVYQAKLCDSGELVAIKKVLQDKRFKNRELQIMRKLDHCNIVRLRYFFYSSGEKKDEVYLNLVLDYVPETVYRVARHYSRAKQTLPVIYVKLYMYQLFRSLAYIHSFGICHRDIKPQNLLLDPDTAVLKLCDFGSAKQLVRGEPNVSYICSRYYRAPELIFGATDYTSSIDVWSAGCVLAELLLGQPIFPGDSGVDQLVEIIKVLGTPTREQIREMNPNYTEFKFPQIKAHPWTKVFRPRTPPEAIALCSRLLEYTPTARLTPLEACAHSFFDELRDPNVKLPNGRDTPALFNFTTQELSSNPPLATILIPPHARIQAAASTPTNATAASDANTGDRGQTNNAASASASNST
Procedure: Compounds of the present invention were screened for their ability to inhibit GSK-3β, (AA 1-420) activity using a standard coupled enzyme system (Fox et al., Protein Sci. 1998, 7, 2249). Reactions were carried out in a solution containing 100 mM HEPES (pH 7.5), 10 mM MgCl2, 25 mM NaCl, 300 μM NADH, 1 mM DTT and 1.5% DMSO. Final substrate concentrations in the assay were 20 μM ATP (Sigma Chemicals, St Louis, Mo.) and 300 μM peptide (American Peptide, Sunnyvale, Calif.). Reactions were carried out at 30° C. and 20 nM GSK-3b. Final concentrations of the components of the coupled enzyme system were 2.5 mM phosphoenolpyruvate, 300 μM NADH, 30 μg/ml pyruvate kinase and 10 μg/ml lactate dehydrogenase.
An assay stock buffer solution was prepared containing all of the reagents listed above with the exception of ATP and the test compound of the present invention. The assay stock buffer solution (175 μl) was incubated in a 96 well plate with 5 μl of the test compound of the present invention at final concentrations spanning 0.002 μM to 30 μM at 30° C. for 10 min. Typically, a 12 point titration was conducted by preparing serial dilutions (from 10 mM compound stocks) with DMSO of the test compounds of the present invention in daughter plates. The reaction was initiated by the addition of 20 μl of ATP (final concentration 20 μM). Rates of reaction were obtained using a Molecular Devices Spectramax plate reader (Sunnyvale, Calif.) over 10 min at 30° C. The Ki values were determined from the rate data as a function of inhibitor concentration.

[3] = target: T1, JAK3 (Homo sapiens, UniProt P52333); assay: JAK3 inhibition assay (ELISA, Poly (Glu, Ala, Tyr) coated plates); details: 2 mM ATP, 60 minutes at 30° C.
T1 sequence (P52333 1-1124): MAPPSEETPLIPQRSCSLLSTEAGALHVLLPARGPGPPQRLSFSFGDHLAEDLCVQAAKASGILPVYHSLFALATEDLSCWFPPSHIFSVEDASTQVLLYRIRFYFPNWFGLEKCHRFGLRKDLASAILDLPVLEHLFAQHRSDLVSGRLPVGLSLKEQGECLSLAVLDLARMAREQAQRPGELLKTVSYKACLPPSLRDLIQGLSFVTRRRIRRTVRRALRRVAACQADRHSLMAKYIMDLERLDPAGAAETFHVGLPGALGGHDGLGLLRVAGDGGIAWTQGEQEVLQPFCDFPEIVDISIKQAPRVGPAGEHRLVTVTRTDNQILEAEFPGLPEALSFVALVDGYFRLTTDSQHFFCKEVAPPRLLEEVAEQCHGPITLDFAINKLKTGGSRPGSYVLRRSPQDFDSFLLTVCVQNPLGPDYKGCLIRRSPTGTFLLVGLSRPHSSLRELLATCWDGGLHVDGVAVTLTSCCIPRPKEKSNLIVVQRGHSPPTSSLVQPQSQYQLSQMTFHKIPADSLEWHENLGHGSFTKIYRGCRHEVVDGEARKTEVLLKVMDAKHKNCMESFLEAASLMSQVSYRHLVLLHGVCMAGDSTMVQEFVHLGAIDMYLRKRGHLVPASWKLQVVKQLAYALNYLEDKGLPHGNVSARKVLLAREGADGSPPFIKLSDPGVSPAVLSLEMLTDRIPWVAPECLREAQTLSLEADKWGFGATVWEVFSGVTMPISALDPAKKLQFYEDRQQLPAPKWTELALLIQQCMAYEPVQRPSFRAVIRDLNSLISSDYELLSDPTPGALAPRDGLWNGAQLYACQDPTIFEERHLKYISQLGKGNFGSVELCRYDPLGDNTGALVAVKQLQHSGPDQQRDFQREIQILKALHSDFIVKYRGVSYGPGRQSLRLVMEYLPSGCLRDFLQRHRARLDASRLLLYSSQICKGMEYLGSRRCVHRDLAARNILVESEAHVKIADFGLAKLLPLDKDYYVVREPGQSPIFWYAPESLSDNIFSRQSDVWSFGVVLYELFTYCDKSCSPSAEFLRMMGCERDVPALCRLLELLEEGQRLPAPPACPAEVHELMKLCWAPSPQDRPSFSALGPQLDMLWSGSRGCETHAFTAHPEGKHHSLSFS
Procedure: Compound inhibition of JAK3 was assayed by the method described by G. R. Brown, et al., Bioorg. Med. Chem. Lett. 2000, vol. 10, pp 575-579 in the following manner. Into Maxisorb plates, previously coated at 4° C. with Poly (Glu, Ala, Tyr) 6:3:1 then washed with phosphate buffered saline 0.05% and Tween (PBST), was added 2 mM ATP, 5 mM MgCl2, and a solution of compound in DMSO. The reaction was started with JAK enzyme and the plates incubated for 60 minutes at 30° C. The plates were then washed with PBST, […] HRP-Conjugated 4G10 antibody was added, and the plate incubated for 90 minutes at 30° C. The plate was again washed with PBST, […] TMB solution is added, and the plates were incubated for another 30 minutes at 30° C. Sulfuric acid ([…] of 1M) was added to stop the reaction and the plate is read at 450 nm to obtain the optical densities for analysis to determine IC50 values.

[4] = target: KDR (Homo sapiens, UniProt P35968); assay: KDR enzyme assay, coupled enzyme assay; details: 300 μM ATP, 10 μM poly E4Y, 30 nM KDR, 37° C.
Sequence of KDR (P35968 20-1356): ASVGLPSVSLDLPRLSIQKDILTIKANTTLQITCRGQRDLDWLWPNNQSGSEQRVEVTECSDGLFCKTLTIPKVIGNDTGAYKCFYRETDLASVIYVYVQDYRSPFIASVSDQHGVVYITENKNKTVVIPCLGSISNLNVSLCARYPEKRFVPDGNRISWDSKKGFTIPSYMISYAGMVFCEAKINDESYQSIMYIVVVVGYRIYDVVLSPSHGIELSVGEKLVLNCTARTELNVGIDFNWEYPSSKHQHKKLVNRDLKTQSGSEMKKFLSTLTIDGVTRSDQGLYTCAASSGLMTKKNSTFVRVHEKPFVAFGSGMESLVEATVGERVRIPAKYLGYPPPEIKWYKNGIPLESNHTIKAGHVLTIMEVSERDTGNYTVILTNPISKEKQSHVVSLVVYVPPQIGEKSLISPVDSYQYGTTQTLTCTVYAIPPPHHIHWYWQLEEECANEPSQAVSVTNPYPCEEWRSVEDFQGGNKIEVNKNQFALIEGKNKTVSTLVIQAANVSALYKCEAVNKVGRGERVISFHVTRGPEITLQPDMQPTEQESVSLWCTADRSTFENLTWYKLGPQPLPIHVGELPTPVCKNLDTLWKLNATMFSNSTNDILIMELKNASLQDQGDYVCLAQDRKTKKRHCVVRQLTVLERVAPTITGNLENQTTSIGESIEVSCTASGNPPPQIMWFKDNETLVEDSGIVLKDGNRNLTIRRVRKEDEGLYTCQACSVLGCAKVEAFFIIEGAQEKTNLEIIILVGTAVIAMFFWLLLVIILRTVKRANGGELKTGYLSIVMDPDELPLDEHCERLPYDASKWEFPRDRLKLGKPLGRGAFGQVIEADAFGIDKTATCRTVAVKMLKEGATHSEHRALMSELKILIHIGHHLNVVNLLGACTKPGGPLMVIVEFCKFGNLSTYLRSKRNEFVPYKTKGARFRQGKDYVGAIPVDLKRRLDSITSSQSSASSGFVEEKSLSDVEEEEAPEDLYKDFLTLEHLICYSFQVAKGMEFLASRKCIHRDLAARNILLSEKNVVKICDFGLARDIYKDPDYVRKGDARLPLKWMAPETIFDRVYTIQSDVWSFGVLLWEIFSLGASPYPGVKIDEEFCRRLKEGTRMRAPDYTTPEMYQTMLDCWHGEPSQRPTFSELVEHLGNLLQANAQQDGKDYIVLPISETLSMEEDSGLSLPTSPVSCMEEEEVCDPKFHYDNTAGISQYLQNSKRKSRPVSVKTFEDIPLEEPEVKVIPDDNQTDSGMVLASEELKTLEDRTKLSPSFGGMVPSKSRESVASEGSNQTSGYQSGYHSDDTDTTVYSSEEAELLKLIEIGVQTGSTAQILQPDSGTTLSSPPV
Procedure: Compounds were screened for their ability to inhibit KDR using a standard coupled enzyme assay (Fox et al., Protein Sci., (1998) 7, 2249). Assays were carried out in a mixture of 200 mM HEPES 7.5, 10 mM MgCl2, 25 mM NaCl, 1 mM DTT and 1.5% DMSO. Final substrate concentrations in the assay were 300 μM ATP (Sigma Chemicals) and 10 μM poly E4Y (Sigma). Assays were carried out at 37° C. and 30 nM KDR. Final concentrations of the components of the coupled enzyme system were 2.5 mM phosphoenolpyruvate, 200 μM NADH, 30 μg/ML pyruvate kinase and 10 μg/ml lactate dehydrogenase.
An assay stock buffer solution was prepared containing all of the reagents listed above, with the exception of ATP and the test compound of interest. 177 μl of the stock solution was placed in a 96 well plate followed by addition of 3 μl of 2 mM DMSO stock containing the test compound (final compound concentration 30 μM). The plate was preincubated for about 10 minutes at 37° C. and the reaction initiated by addition of 20 μl of ATP (final concentration 300 μM). Rates of reaction were obtained using a Molecular Devices plate reader (Sunnyvale, Calif.) over a 5 minute read time at 37° C.

Sequence of c-Met (P08581 25-1390): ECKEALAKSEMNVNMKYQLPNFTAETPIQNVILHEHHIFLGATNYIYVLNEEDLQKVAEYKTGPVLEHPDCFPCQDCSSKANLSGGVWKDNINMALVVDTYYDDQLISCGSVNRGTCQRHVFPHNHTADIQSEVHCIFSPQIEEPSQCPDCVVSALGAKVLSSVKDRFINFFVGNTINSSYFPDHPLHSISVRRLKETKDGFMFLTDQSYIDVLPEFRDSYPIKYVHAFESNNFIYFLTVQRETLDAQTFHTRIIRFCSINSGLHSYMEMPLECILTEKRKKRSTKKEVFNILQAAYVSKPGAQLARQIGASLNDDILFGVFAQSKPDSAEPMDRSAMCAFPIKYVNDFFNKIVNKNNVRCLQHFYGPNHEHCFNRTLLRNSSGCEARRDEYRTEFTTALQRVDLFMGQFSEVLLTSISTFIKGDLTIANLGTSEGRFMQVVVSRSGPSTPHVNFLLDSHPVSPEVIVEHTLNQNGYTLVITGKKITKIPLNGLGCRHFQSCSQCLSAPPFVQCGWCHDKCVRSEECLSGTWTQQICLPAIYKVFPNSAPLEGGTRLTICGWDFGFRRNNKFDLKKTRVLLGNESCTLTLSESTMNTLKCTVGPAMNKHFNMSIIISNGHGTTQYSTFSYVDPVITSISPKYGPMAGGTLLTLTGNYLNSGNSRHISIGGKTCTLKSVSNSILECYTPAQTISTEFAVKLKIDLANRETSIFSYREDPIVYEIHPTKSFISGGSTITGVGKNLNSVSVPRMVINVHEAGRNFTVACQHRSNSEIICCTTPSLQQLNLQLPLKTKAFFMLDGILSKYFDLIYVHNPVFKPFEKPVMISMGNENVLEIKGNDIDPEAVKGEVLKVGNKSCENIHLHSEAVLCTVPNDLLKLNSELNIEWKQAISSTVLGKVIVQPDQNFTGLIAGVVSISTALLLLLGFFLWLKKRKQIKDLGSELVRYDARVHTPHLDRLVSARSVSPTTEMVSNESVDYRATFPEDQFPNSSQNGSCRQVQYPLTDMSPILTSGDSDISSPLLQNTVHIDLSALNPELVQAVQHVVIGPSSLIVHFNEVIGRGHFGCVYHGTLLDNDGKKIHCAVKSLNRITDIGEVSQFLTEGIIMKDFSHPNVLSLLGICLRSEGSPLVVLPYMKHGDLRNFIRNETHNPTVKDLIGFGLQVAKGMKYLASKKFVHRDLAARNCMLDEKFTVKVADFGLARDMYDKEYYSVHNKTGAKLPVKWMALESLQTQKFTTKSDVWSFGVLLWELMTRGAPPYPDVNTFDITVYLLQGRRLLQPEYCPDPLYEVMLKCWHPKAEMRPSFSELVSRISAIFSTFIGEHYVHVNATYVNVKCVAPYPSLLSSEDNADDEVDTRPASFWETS

Ki [1] [nM] | Ki [2] [nM] | Ki [3] [nM] | Ki [4] [nM] | Structure (SMILES)
1000 to 12500 | – | – | – | Fc1cccc(-n2nnnc2-c2c[nH]c3ncccc23)c1F [Compound 11, 3-[1-(2,3-Difluoro-phenyl)-1H-tetrazol-5-yl]-1H-pyrrolo [2,3-b]pyridine]
1000 to 12500 | – | – | – | CN(C)c1ccc2c(-c3oncc3-c3cccc(F)c3F)n[nH]c2n1 [Compound 32]
1000 to 12500 | – | 200 to 1000 | 1000 to 12500 | COc1cccc(-c2cnoc2-c2c[nH]c3ncccc23)c1OC [Compound 51, 3-[4-(2,3-Dimethoxy-phenyl)-isoxazol-5-yl]-1H-pyrrolo[2,3-b]pyridine]
1000 to 12500 | 1000 to 12500 | 1000 to 12500 | – | c1cncc(-c2cnoc2-c2c[nH]c3ncccc23)c1 [Compound 52, 3-(4-Pyridin-3-yl-isoxazol-5-yl)-1H-pyrrolo[2,3-b]pyridine]
< 200 | 200 to 1000 | – | < 200 | N#Cc1ccc(-c2cnc3[nH]cc(-c4oncc4-c4cccc(F)c4F)c3c2)cc1 [Compound 89, 4-{3-[4-(2,3-Difluoro-phenyl)-isoxazol-5-yl]-1H-pyrrolo [2,3-b]pyridin-5-yl}-benzonitrile]
1000 to 12500 | – | – | – | Fc1cccc(-c2cnoc2-c2c[nH]c3nc(N4CCCC4)ccc23)c1F [Compound 100, 3-[4-(2,3-Difluoro-phenyl)-isoxazol-5-yl]-6-pyrrolidin-1-yl-1H-pyrrolo[2,3-b]pyridine]
200 to 1000 | 1000 to 12500 | – | 200 to 1000 | Fc1cccc(-c2cnoc2-c2n[nH]c3ncc(Br)cc23)c1F [Compound 148]
1000 to 12500 | 1000 to 12500 | – | – | [O-][n+]1cccc2c(-c3oncc3-c3cccc(F)c3F)c[nH]c21 [Compound 151]

The remaining lines, values behind:

Structure (SMILES) | Ki [1] [nM] | Ki [2] [nM] | Ki [3] [nM] | Ki [4] [nM]
CCNc1ccc2c(-c3oncc3-c3cccc(F)c3F)n[nH]c2n1 [Compound 30, {3-[4-(2,3-Difluoro-phenyl)-isoxazol-5-yl]-1H-pyrazolo[3,4-b]pyridin-6-yl}-ethyl-amine] | 1000 to 12500 | – | – | –
Fc1cccc(-c2cnoc2-c2c[nH]c3c(F)cccc23)c1F [Compound 33, 3-[4-(2,3-Difluoro-phenyl)-isoxazol-5-yl]-7-fluoro-1H-indole] | – | 1000 to 12500 | – | –
c1ccc(-c2cnoc2-c2c[nH]c3ncccc23)nc1 [Compound 50, 3-(4-Pyridin-2-yl-isoxazol-5-yl)-1H-pyrrolo[2,3-b]pyridine] | – | – | 1000 to 12500 | –
Fc1cccc(-c2cnoc2-c2c[nH]c3nc(Cl)ccc23)c1F [Compound 101, 6-Chloro-3-[4-(2,3-difluoro-phenyl)-isoxazol-5-yl]-1H-pyrrolo[2,3-b]pyridine] | 1000 to 12500 | – | – | –
Fc1cccc(-n2cnnc2-c2c[nH]c3ncccc23)c1F [Compound 107, 3-[4-(2,3-Difluoro-phenyl)-4H-[1,2,4]triazol-3-yl]-1H-pyrrolo[2,3-b]pyridine] | 1000 to 12500 | – | – | –
COC(=O)Cn1ccc2c(-c3oncc3-c3cccc(F)c3F)c[nH]c2c1=O [Compound 146, {3-[4-(2,3-Difluoro-phenyl)-isoxazol-5-yl]-7-oxo-1,7-di hydro-pyrrolo[2,3-c]pyridin-6-yl}-acetic acid methyl ester] | 1000 to 12500 | – | – | –
O=c1c2[nH]cc(-c3oncc3-c3cccc(F)c3F)c2ccn1Cc1ccccc1 [Compound 147, 6-Benzyl-3-[4-(2,3-difluoro-phenyl)-isoxazol-5-yl]-1,6-dihydro-pyrrolo[2,3-c]pyridin-7-one] | 1000 to 12500 | – | – | –
